Oc1ccc(C2(c3ccc(O)cc3)CCCCC2)cc1
solubility (mole fraction)
Settings | in 1,4-dioxane | in THF | in acetone | in ethanol | in ethyl acetate | in isopropanol | in methanol | in n-butanol | in n-propanol
288.15 K | 0.0609 | 0.182 | 0.0602 | 0.0073 | 0.0571 | 0.0053 | 0.012 | 0.012 | 0.032
293.15 K | 0.0621 | 0.192 | 0.0652 | 0.0084 | 0.0681 | 0.0061 | 0.0129 | 0.0127 | 0.0355
298.15 K | 0.0676 | 0.206 | 0.0756 | 0.0096 | 0.0769 | 0.0066 | 0.0162 | 0.0133 | 0.0437
303.15 K | 0.0731 | 0.221 | 0.0931 | 0.0117 | 0.0951 | 0.0076 | 0.0208 | 0.0157 | 0.0563
308.15 K | 0.0866 | 0.236 | 0.109 | 0.013 | 0.113 | 0.0089 | 0.0253 | 0.0184 | 0.0654
313.15 K | 0.103 | 0.251 | 0.127 | 0.0152 | 0.136 | 0.0134 | 0.0342 | 0.0236 | 0.0789
318.15 K | 0.116 | 0.268 | 0.152 | 0.017 | 0.15 | 0.0192 | 0.0428 | 0.028 | 0.0896
323.15 K | 0.127 | 0.283 | 0.182 | 0.0186 | 0.176 | 0.0243 | 0.0547 | 0.0348 | 0.103
328.15 K | 0.144 | 0.308 | 0.219 | 0.0202 | 0.199 | 0.0294 | 0.0685 | 0.0431 | 0.121

Reference: BigSolDB 2.1
